The text below walks through data of patent US6613762B2, “Gambogic acid, analogs and derivatives as activators of caspases and inducers of apoptosis” (Cytovia, Inc., priority 1999, dated 2003).

The test system of data set [1] is KB cell line. To be noted: reported by Lin et al., Magn. Reson. Chem. 31:340-347 (1993); cited from earlier work.
In data set [2] the test system is human non-small cell lung cancer cell line A-549. As to the kind of experiment: Inhibition of cell proliferation (GI50) and cell death (LC50), A-549. The data set is classed as cell-based. The conditions noted are these: A-549, 48 h; read-out: GI50 (dose for 50% inhibition of cell proliferation). The protocol:
T47D, ZR-75-1, PC-3, human prostate cancer cell line DU-145, human non-small cell lung cancer cell line A-549, human small cell lung cancer cell line SHP-77, HL-60 and MRC-5 cells were grown and harvested as in Example 90. […] The samples were mixed by agitation and incubated at 37° C. for 2-4 h in a 5% CO2-95% humidity incubator. […] This determines the possible background absorbance of the test compounds. No absorbance for gambogic acid or its analogs or derivatives was found at 490 nm. After the 2-4 h incubation, the samples were read for absorbance as above (ATest).
Baseline for GI50 (dose for 50% inhibition of cell proliferation) and LC50 (dose for 50% cell death) of initial cell numbers was determined by adding an aliquot of 90 μl of cells or 90 μl of media, respectively, to wells of a 96-well microtiter plate containing 10 μl of a 10% DMSO in RPMI-1640 media solution. […] The samples were mixed by agitation and incubated at 37° C. for 2-4 h in a 5% CO2-95% humidity incubator. Absorbance was read as above, (AT=0) defining absorbance for initial cell number used as baseline in GI50 determinations and (Amin) defining absorbance for media alone used as baseline in LC50 determinations.
GI50 (dose for 50% inhibition of cell proliferation)
LC50 (dose for 50% cell death)
50=100×[(ATest−Amin)/(AT=0−Amin)]

Regarding `CC(C)=CCC[C@]1(C)C=Cc2c(O)c3c(c(CC=C(C)C)c2O1)O[C@]12C(=C[C@@H]4C[C@H]1C(C)(C)O[C@@]2(C/C=C(/C)C(=O)O)C4=O)C3=O` [Example 1, Gambogic Acid], the “Cytotoxicity against KB cell line” value in data set [1] is “cytotoxic”. For the same compound, the GI50 in data set [2] amounted to 800 nM.
